Values after ≈ are worked out from the molar mass of the structure shown. Like-named read-outs stand apart in the source and are kept apart here.
How the values were obtained:
[1] = test system: Pseudomonas aeruginosa PA14; assay: Lungs of immunosuppressed mice infected with Pseudomonas aeruginosa (2), lung bacterial load; type: in vivo; details: 24 hours after infection, day, ip at 2 h, 4 h, 6 h, 8 h
Description: Pseudomonas aeruginosa PA14. 60 mice were intraperitoneally injected with 150 mg/kg cyclophosphamide on day 1 and day 4 to give immunosuppressed mice. […] [table] The mice were injected with 50 μL of bacterial solution (2×10^3 CFU) through the airway. 2 hours after the infection, 4 mice in the model group was sacrificed by removing cervical vertebra. Two hours after infection, the drugs were administered by groups, and the mice were administered intraperitoneally once at 2 hours, 4 hours, 6 hours, and 8 hours, a total of 4 times. Mice of each group were sacrificed by removing cervical vertebra 24 hours after infection, lung and kidney tissues were taken aseptically and put into a sterilized tissue homogenate tube, weighed, and an appropriate amount of normal saline (NS) was added, the mixture was homogenized by a homogenizer for 1 min, the lung tissues of the model group were diluted 10^4, 10^5, 10^6 times, the lung tissues of each administration group were diluted 10, 100 times, the kidney tissues of the model group were diluted 10^2, 10^3, 10^4 times, and the lung tissues of each administration group were diluted 10 times, the obtained mixtures were coated on TSA plates using spiral coater, then incubated at 37° C. overnight, and the CFU was counted with a colony counter. Graphpad Prism mapping software was used to make scatter plots of lung tissue CFU. SPSS19.0 software was used to count CFU and average body weight, and analysis of variance was used to analyze differences between groups.

[2] = test system: Pseudomonas aeruginosa W21; assay: MIC on clinically isolated bacteria; type: cell-based
Summary of the method: (§1)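 Clinical strains were selected (twenty-five A. baumannii, twenty-seven P. aeruginosa), then compounds were serially diluted in liquid micro-dilution format following CLSI requirements to find the minimum inhibitory concentration.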

[3] = test system: Pseudomonas aeruginosa W28; assay: MIC on clinically isolated bacteria; type: cell-based
Summary of the method: as §1

[4] = test system: Acinetobacter baumannii C332; assay: MIC on clinically isolated bacteria; type: cell-based
Summary of the method: as §1

[5] = test system: Pseudomonas aeruginosa W46; assay: MIC on clinically isolated bacteria; type: cell-based
Summary of the method: as §1

[6] = test system: Acinetobacter baumannii C401; assay: MIC on clinically isolated bacteria; type: cell-based
Summary of the method: as §1

[7] = test system: Pseudomonas aeruginosa W32; assay: MIC on clinically isolated bacteria; type: cell-based
Summary of the method: as §1

[8] = test system: Pseudomonas aeruginosa W47; assay: MIC on clinically isolated bacteria; type: cell-based
Summary of the method: as §1

[9] = test system: Acinetobacter baumannii C319; assay: MIC on clinically isolated bacteria; type: cell-based
Summary of the method: as §1

[10] = test system: Pseudomonas aeruginosa W19; assay: MIC on clinically isolated bacteria; type: cell-based
Summary of the method: as §1

[11] = test system: Acinetobacter baumannii C251; assay: MIC on clinically isolated bacteria; type: cell-based
Summary of the method: as §1

[12] = test system: Pseudomonas aeruginosa C761; assay: MIC on clinically isolated bacteria; type: cell-based
Summary of the method: as §1

[13] = test system: Acinetobacter baumannii C270; assay: MIC on clinically isolated bacteria; type: cell-based
Summary of the method: as §1

[14] = test system: Acinetobacter baumannii ATCC-BAA-1800; assay: MIC on Acinetobacter baumannii strains; type: cell-based; details: ATCCBAA1800
Excerpt: (§2) Twelve strains of Acinetobacter baumannii, A. baumannii ATCC 17978 (ATCC-BAA-1605, ATCC-BAA-1789, ATCC-BAA-1790, ATCC-BAA-1791, ATCC-BAA-1792, ATCC-BAA-1793, ATCC-BAA-1794, ATCC-BAA-1795, ATCC-BAA-1799, ATCC-BAA-1800, ATCC 19606, ATCC 17978) were used to determine the minimum inhibitory concentration (MIC) of the compounds by micro-liquid dilution method according to the Institute of Clinical and Laboratory Standard (CLSI) requirements.

[15] = test system: Acinetobacter baumannii ATCC-BAA-1794; assay: MIC on Acinetobacter baumannii strains; type: cell-based; details: ATCCBAA1794
Excerpt: as §2

[16] = test system: Acinetobacter baumannii ATCC-BAA-1799; assay: MIC on Acinetobacter baumannii strains; type: cell-based; details: ATCCBAA1799
Excerpt: as §2

[17] = test system: Acinetobacter baumannii ATCC-BAA-1791; assay: MIC on Acinetobacter baumannii strains; type: cell-based; details: ATCCBAA1791
Excerpt: as §2

[18] = test system: Acinetobacter baumannii ATCC-BAA-1790; assay: MIC on Acinetobacter baumannii strains; type: cell-based; details: ATCCBAA1790
Excerpt: as §2

[19] = test system: Acinetobacter baumannii ATCC 17978; assay: MIC on Acinetobacter baumannii strains; type: cell-based; details: ATCC17978
Excerpt: as §2

[20] = test system: P. aeruginosa PA 14; assay: MIC by micro-liquid dilution method (CLSI); type: cell-based; details: Pseudomonas aeruginosa, PA14; P. aeruginosa PA 14; read-out: MIC
Excerpt: (§3) Three strains of Klebsiella pneumonia, K. pneumoniae ATCC BAA-205 (TEM-1/SHV-1/SHV-12), K. pneumoniae ATCC BAA-1705 (KPC-2), K. pneumoniae ATCC BAA-2470 (NDM-1); three strains of Pseudomonas aeruginosa, P. aeruginosa NCTC13437 (VIM-10; VEB-1), P. aeruginosa PA 14 and P. aeruginosa ATCC 35151; four strains of Escherichia coli, E. coli NCTC 13476 (IMP-1 type), E. coli ATCC BAA-2523 (OXA-48), E. coli MG1655Δtol C, E. coli ATCC 25922; one strain of Acinetobacter baumannii, A. baumannii ATCC 17978 and one strain of Staphylococcus aureus, S. aureus NRS384 were used to determine the minimum inhibitory concentration (MIC) of the compounds by micro-liquid dilution method according to the Institute of Clinical and Laboratory Standard (CLSI) requirements.

[21] = test system: E. coli NCTC 13476 (IMP-1 type); assay: MIC by micro-liquid dilution method (CLSI); type: cell-based; details: Escherichia coli; E. coli NCTC13476; read-out: MIC
Excerpt: as §3

[22] = test system: E. coli MG1655Δtol C; assay: MIC by micro-liquid dilution method (CLSI); type: cell-based; details: Escherichia coli
Excerpt: as §3

[23] = test system: E. coli ATCC BAA-2523 (OXA-48); assay: MIC by micro-liquid dilution method (CLSI); type: cell-based; details: Escherichia coli, ATCCBAA2523; E. coli ATCCBAA-2523; read-out: MIC
Excerpt: as §3

[24] = Acinetobacter baumannii C332, read-out: Minimum Inhibitory Concentration (MIC)
[25] = Acinetobacter baumannii C401, read-out: Minimum Inhibitory Concentration (MIC)
[26] = Acinetobacter baumannii C319, read-out: Minimum Inhibitory Concentration (MIC)
[27] = Acinetobacter baumannii C251, read-out: Minimum Inhibitory Concentration (MIC)
[28] = Acinetobacter baumannii C270, read-out: Minimum Inhibitory Concentration (MIC)

| SMILES | MIC ([2]; read-out: MIC) | MIC ([3]; read-out: MIC) | MIC [4, 24] | MIC ([5]; read-out: MIC) | MIC [6, 25] | MIC ([7]; read-out: MIC) | MIC ([8]; read-out: MIC) | MIC [9, 26] | MIC ([10]; read-out: MIC) | MIC [11, 27] | MIC ([12]; read-out: MIC) | MIC [13, 28] | LOG10-of bacterial load ([1]; total dosage 20 mg/kg) | LOG10-of bacterial load ([1]; total dosage 60 mg/kg) | further results |
| --- | --- | --- | --- | --- | --- | --- | --- | --- | --- | --- | --- | --- | --- | --- | --- |
| CC1(C)[C@H](NC(=O)/C(=N\O[C@@H](COc2ccc3c(c2)CN(C(=N)NCCN)C3)C(=O)O)c2csc(N)n2)C(=O)N1OS(=O)(=O)O [Compound 44] | 0.5 µg/mL (≈ 0.747 µM) | 4 µg/mL (≈ 5.97 µM) | 1 µg/mL (≈ 1.49 µM) | 1 µg/mL (≈ 1.49 µM) | 1 µg/mL (≈ 1.49 µM) | 2 µg/mL (≈ 2.99 µM) | 2 µg/mL (≈ 2.99 µM) | 1 µg/mL (≈ 1.49 µM) | 1 µg/mL (≈ 1.49 µM) | 4 µg/mL (≈ 5.97 µM) | 1 µg/mL (≈ 1.49 µM) | 1 µg/mL (≈ 1.49 µM) | 6.80 ± 0.94 | 2.40 ± 1.99 |  |
| C[C@@H](O)[C@H]1C(=O)N2C(C(=O)O)=C(S[C@@H]3CN[C@H](C(=O)N(C)C)C3)[C@H](C)[C@H]12 [Meropenem, reference compound] | 16 µg/mL (≈ 41.7 µM) | 32 µg/mL (≈ 83.4 µM) | 64 µg/mL (≈ 167 µM) | 2 µg/mL (≈ 5.22 µM) | 128 µg/mL (≈ 334 µM) | 4 µg/mL (≈ 10.4 µM) | 4 µg/mL (≈ 10.4 µM) | 64 µg/mL (≈ 167 µM) | 1 µg/mL (≈ 2.61 µM) | 64 µg/mL (≈ 167 µM) | < 0.25 µg/mL | 64 µg/mL (≈ 167 µM) |  |  | MIC [14]: > 128 µg/mL; MIC [15]: > 128 µg/mL; MIC [16]: 128 µg/mL (≈ 334 µM); MIC [17]: 64 µg/mL (≈ 167 µM); MIC [18]: 128 µg/mL (≈ 334 µM); MIC [19]: 0.5 µg/mL (≈ 1.3 µM); MIC [20]: 0.5 µg/mL (≈ 1.3 µM); MIC [21]: 32 µg/mL (≈ 83.4 µM); MIC [22]: ≤ 0.125 µg/mL; MIC [23]: 2 µg/mL (≈ 5.22 µM) |
| CN(C)c1cc(NC(=O)CNC(C)(C)C)c(O)c2c1C[C@H]1C[C@H]3[C@H](N(C)C)C(O)=C(C(N)=O)C(=O)[C@@]3(O)C(O)=C1C2=O [Tigecycline, reference compound] |  |  |  |  |  |  |  |  |  |  |  |  |  |  | MIC [2]: 8 µg/mL (≈ 13.7 µM); MIC [3]: > 16 µg/mL; MIC ([4]; Acinetobacter baumannii, C332, read-out: Minimum Inhibitory Concentration (MIC)): 1 µg/mL (≈ 1.71 µM); MIC [5]: 8 µg/mL (≈ 13.7 µM); MIC ([6]; Acinetobacter baumannii, C401, read-out: Minimum Inhibitory Concentration (MIC)): 1 µg/mL (≈ 1.71 µM); MIC [7]: 16 µg/mL (≈ 27.3 µM); MIC [8]: 16 µg/mL (≈ 27.3 µM); MIC ([9]; Acinetobacter baumannii, C319, read-out: Minimum Inhibitory Concentration (MIC)): 1 µg/mL (≈ 1.71 µM); MIC [10]: 8 µg/mL (≈ 13.7 µM); MIC ([11]; Acinetobacter baumannii, C251, read-out: Minimum Inhibitory Concentration (MIC)): 8 µg/mL (≈ 13.7 µM); MIC [12]: 16 µg/mL (≈ 27.3 µM); MIC ([13]; Acinetobacter baumannii, C270, read-out: Minimum Inhibitory Concentration (MIC)): 1 µg/mL (≈ 1.71 µM) |

Now from value to compound, other results behind:

| MIC ([2]; read-out: MIC) | MIC ([3]; read-out: MIC) | MIC [4, 24] | MIC ([5]; read-out: MIC) | MIC [6, 25] | MIC ([7]; read-out: MIC) | MIC ([8]; read-out: MIC) | MIC [9, 26] | MIC ([10]; read-out: MIC) | MIC [11, 27] | MIC ([12]; read-out: MIC) | MIC [13, 28] | SMILES | LOG10-of bacterial load ([1]; total dosage 20 mg/kg) | LOG10-of bacterial load ([1]; total dosage 60 mg/kg) | further results |
| --- | --- | --- | --- | --- | --- | --- | --- | --- | --- | --- | --- | --- | --- | --- | --- |
| 4 µg/mL (≈ 5.61 µM) | > 16 µg/mL | 16 µg/mL (≈ 22.4 µM) | 8 µg/mL (≈ 11.2 µM) | 8 µg/mL (≈ 11.2 µM) | 16 µg/mL (≈ 22.4 µM) | 16 µg/mL (≈ 22.4 µM) | 16 µg/mL (≈ 22.4 µM) | 8 µg/mL (≈ 11.2 µM) | 16 µg/mL (≈ 22.4 µM) | 8 µg/mL (≈ 11.2 µM) | 16 µg/mL (≈ 22.4 µM) | CC1(C)[C@H](NC(=O)/C(=N\O[C@@H](COc2ccc3c(c2)CN(C(=N)N(CCN)CCN)C3)C(=O)O)c2csc(N)n2)C(=O)N1OS(=O)(=O)O [Compound 45] |  |  |  |
| 0.25 µg/mL (≈ 0.315 µM) | 4 µg/mL (≈ 5.04 µM) | 4 µg/mL (≈ 5.04 µM) | 0.5 µg/mL (≈ 0.631 µM) | 4 µg/mL (≈ 5.04 µM) | 1 µg/mL (≈ 1.26 µM) | 1 µg/mL (≈ 1.26 µM) | 4 µg/mL (≈ 5.04 µM) | 0.5 µg/mL (≈ 0.631 µM) | > 16 µg/mL | 0.25 µg/mL (≈ 0.315 µM) | 4 µg/mL (≈ 5.04 µM) | CC1(C)[C@H](NC(=O)/C(=N\O[C@@H](COc2ccc3c(c2)CN(/C(=N\[C@@H]2CCCNC2)N[C@@H]2CCCNC2)C3)C(=O)O)c2csc(N)n2)C(=O)N1OS(=O)(=O)O [Compound 46] | 3.13 ± 2.45 | 0.34 ± 0.85 |  |
